The assay deals with T1, human TLR7 (Homo sapiens, UniProt Q9NYK1).
T1 construct: expressed in transfected cells; host or cells: HEK293 (HEK-Blue-7)
T1 sequence (Q9NYK1 27-1049): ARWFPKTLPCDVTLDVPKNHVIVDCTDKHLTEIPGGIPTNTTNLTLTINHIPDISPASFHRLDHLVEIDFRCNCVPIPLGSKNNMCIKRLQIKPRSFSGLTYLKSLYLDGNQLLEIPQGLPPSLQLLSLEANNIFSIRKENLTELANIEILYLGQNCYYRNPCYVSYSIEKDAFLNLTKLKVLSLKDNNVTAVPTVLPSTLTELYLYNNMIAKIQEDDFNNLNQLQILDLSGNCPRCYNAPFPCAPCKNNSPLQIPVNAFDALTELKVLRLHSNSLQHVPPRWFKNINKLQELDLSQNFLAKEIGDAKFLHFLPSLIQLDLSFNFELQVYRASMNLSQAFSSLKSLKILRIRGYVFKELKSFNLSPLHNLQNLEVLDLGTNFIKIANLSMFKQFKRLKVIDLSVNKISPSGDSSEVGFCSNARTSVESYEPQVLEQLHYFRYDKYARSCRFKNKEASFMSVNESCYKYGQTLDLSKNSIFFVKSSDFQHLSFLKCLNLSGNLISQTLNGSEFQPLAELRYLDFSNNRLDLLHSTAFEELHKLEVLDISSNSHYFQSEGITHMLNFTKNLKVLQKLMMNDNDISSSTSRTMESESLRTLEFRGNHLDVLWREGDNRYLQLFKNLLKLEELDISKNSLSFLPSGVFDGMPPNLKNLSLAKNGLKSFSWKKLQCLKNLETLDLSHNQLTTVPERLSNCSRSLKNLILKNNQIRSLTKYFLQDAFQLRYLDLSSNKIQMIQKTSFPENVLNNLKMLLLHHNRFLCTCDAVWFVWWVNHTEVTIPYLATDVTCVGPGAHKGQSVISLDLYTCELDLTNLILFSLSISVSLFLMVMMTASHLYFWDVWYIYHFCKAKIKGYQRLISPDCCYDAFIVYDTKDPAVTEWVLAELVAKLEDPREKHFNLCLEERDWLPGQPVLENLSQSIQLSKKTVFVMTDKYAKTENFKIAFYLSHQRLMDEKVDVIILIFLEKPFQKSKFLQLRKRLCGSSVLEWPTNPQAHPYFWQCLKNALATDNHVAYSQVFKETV
As to the kind of experiment: Human TLR7 reporter gene assay (NF-κB induction), HEK-Blue-7 cells. Format: cell-based. In general terms: Reporter assays use an easily measured gene product as a stand-in for the process of interest.

[1] abbreviates: human TLR7-specific reporter gene assay, Inactive = no activity up to 500 μg/mL.
[2] abbreviates: human TLR7-specific reporter gene assay, Inactive = no activity up to 500 μg/mL, read-out: hTLR7-agonistic Activity (EC50).

Results on 16 molecules are retold here after patent publication US10471139B2, “Toll-like receptor agonists” (The University of Kansas, priority 2013, dated 2019).

Where two headings read alike, the source gives them in different places.

From the text: Human TLR-7/-8 Reporter Gene Assays (NF-κB Induction).
The induction of NF-κB was quantified using HEK-Blue-7 (hTLR7-specific) and HEK-Blue-8 (hTLR8-specific) cells. HEK293 cells stably co-transfected with human TLR7 or human TLR8, MD2, and secreted alkaline phosphatase (sAP), were maintained in HEK-Blue™ Selection medium containing zeocin and normocin. Stable expression of secreted alkaline phosphatase (sAP) under control of NF-κB/AP-1 promoters is inducible by appropriate TLR agonists, and extracellular sAP in the supernatant is proportional to NF-κB induction.
HEK293 cells stably co-transfected with the appropriate hTLR (or NOD) and secreted alkaline phosphatase (sAP) were maintained in HEK-Blue™ Selection medium. Stable expression of secreted alkaline phosphatase (sAP) under control of NF-κB/AP-1 promoters is inducible by appropriate TLR/NOD agonists, and extracellular sAP in the supernatant is proportional to NF-κB induction.

As for `CCCCNc1nccc2c1nc(CCCC)n2Cc1ccccc1` [Compound 11a, 1-Benzyl-N,2-dibutyl-1H-imidazo[4,5-c]pyridin-4-amine], the “hTLR7-agonistic Activity (EC50)” value under setting [1] is “Inactive”.
Regarding `CCCCc1nc2c(NCc3ccccc3)nccc2n1Cc1ccccc1` [Compound 11b, N,1-Dibenzyl-2-butyl-1H-imidazo[4,5-c]pyridin-4-amine], the “hTLR7-agonistic Activity (EC50)” value under setting [1] is given as “Inactive”.
Consider `CCCCc1nc2c(N)nc(Cl)cc2n1Cc1ccccc1` [Compound 17, 1-Benzyl-2-butyl-6-chloro-1H-imidazo[4,5-c]pyridin-4-amine], for which the “hTLR7-agonistic Activity (EC50)” value under setting [1] is “Inactive”. Also, the “TLR7-specific agonistic activity EC50” value (primary screen) is “inactive”.
A word on the EC50: it is the concentration that produces a half-maximal response. As for `CCCCc1nc2c(N)nc(N)cc2n1Cc1ccccc1` [Compound 19a, 1-Benzyl-2-butyl-1H-imidazo[4,5-c]pyridine-4,6-diamine], the EC50 under setting [2] turned out to be 1250 nM.
Regarding `CCCCNc1cc2c(nc(CCCC)n2Cc2ccccc2)c(N)n1` [Compound 19b, 1-Benzyl-N^6,2-dibutyl-1H-imidazo[4,5-c]pyridine-4,6-diamine], the EC50 under setting [2] stood at 340 nM.
For the molecule `CCCCCCCNc1cc2c(nc(CCCC)n2Cc2ccccc2)c(N)n1` [Compound 19c, 1-Benzyl-2-butyl-N^6-heptyl-1H-imidazo[4,5-c]pyridine-4,6-diamine], under setting [2], the EC50 was 760 nM.
As for `CCCCc1nc2c(N)nc(Nc3ccccc3)cc2n1Cc1ccccc1` [Compound 19e, 1-Benzyl-2-butyl-N^6-phenyl-1H-imidazo[4,5-c]pyridine-4,6-diamine], the 50% effective concentration (EC50) under setting [2] came to 1720 nM.
As to `CCCCc1nc2c(N)nc(NCc3ccccc3)cc2n1Cc1ccccc1` [Compound 19f, N^6,1-Dibenzyl-2-butyl-1H-imidazo[4,5-c]pyridine-4,6-diamine], where the note is “fold over compound 5”, the “TLR7-agonistic potency relative to compound 5” value is roughly 7.6. Moreover, the EC50 under setting [2] amounted to 210 nM.
For `CCCCc1nc2c(N)nc(NCc3cccc(OC)c3)cc2n1Cc1ccccc1` [Compound 19h, 1-Benzyl-2-butyl-N^6-(3-methoxybenzyl)-1H-imidazo[4,5-c]pyridine-4,6-diamine], under setting [2], the EC50 came out at 610 nM.
Regarding `CCCCc1nc2c(N)nc(NCc3ccc(C(F)(F)F)cc3)cc2n1Cc1ccccc1` [Compound 19i, 1-Benzyl-2-butyl-N^6-(4-(trifluoromethyl)benzyl)-1H-imidazo[4,5-c]pyridine-4,6-diamine], under setting [2], the EC50 was 1040 nM.
In the case of `CCCCc1nc2c(N)nc(NCc3ccc(Cl)cc3)cc2n1Cc1ccccc1` [Compound 19j, 1-Benzyl-2-butyl-N^6-(4-chlorobenzyl)-1H-imidazo[4,5-c]pyridine-4,6-diamine], under setting [2], the half-maximal effective concentration (EC50) stood at 640 nM.
Take `CCCCc1nc2c(N)nc(NCc3ccncc3)cc2n1Cc1ccccc1` [Compound 19l, 1-Benzyl-2-butyl-N^6-(pyridin-4-ylmethyl)-1H-imidazo[4,5-c]pyridine-4,6-diamine]: under setting [2], the EC50 worked out at 250 nM.
In the case of `CCCCc1nc2c(N)nc(NCc3cccc4ccccc34)cc2n1Cc1ccccc1` [Compound 19n, 1-Benzyl-2-butyl-N^6-(naphthalen-1-ylmethyl)-1H-imidazo[4,5-c]pyridine-4,6-diamine], under setting [1], the “hTLR7-agonistic Activity (EC50)” value is listed as “Inactive”. Under “primary screen”, the “TLR7-specific agonistic activity EC50” value was “quiescent”.
For the molecule `CCCCc1nc2c(N)nc(NCc3ccc(-c4ccccc4)cc3)cc2n1Cc1ccccc1` [Compound 19o, N^6-([1,1′-Biphenyl]-4-ylmethyl)-1-benzyl-2-butyl-1H-imidazo[4,5-c]pyridine-4,6-diamine], under setting [2], the EC50 stood at 1090 nM. For the same molecule, the “TLR7-specific agonistic activity EC50” value (primary screen) is on record as “active”.
For `CCCCc1nc2c(N)nc(NCc3cccc(CN)c3)cc2n1Cc1ccccc1` [Compound 19q, N^6-(3-(aminomethyl)benzyl)-1-benzyl-2-butyl-1H-imidazo[4,5-c]pyridine-4,6-diamine], the EC50 (primary screen, read-out: TLR7-specific agonistic activity EC50) came out at 370 nM.
As to `CCCCc1nc2c(N)nc(NCc3ccc(CNc4cc5c(nc(CCCC)n5Cc5ccccc5)c(N)n4)cc3)cc2n1Cc1ccccc1` [Compound 19r, N^6,N^6′-(1,4-phenylenebis(methylene))bis(1-benzyl-2-butyl-1H-imidazo[4,5-c]pyridine-4,6-diamine)], the EC50 under setting [2] was found to be 1080 nM.
